The source of these data is the CombiSolv-Exp solvation set (Vermeire and Green 2021).

This data set in a line: solvent given as SMILES.

Molecules are shown by their SMILES.

As for `O=C(O)c1ccc(Cl)c([N+](=O)[O-])c1`, the “solvation free energy, 298 K” value (in C1CCOC1) is -14.2 kcal/mol; the “solvation free energy, 298 K” value (in C1COCCO1) was -14.2 kcal/mol; the “solvation free energy, 298 K” value (in CC(C)(C)O) is -13.3 kcal/mol; the “solvation free energy, 298 K” value (in CC(C)CCO) was -13.1 kcal/mol; the “solvation free energy, 298 K” value (in CC(C)CO) is -12.9 kcal/mol; the “solvation free energy, 298 K” value (in CC(C)O) was -13.4 kcal/mol. The “solvation free energy, 298 K” value is, setting by setting: (in CCC(C)O) -13.2 kcal/mol; (in CCCC(=O)OC) -13 kcal/mol; (in CCCC(C)O) -13.2 kcal/mol; (in CCCCCCCCCCO) -12.9 kcal/mol; (in CCCCCCCCO) -13.1 kcal/mol; (in CCCCCCCO) -13.1 kcal/mol. Also, the “solvation free energy, 298 K” value runs as follows: (in CCCCCCO) -13.1 kcal/mol; (in CCCCCO) -13.2 kcal/mol; (in CCCCO) -13.2 kcal/mol; (in CCCCOC(C)=O) -13.1 kcal/mol; (in CCCO) -13.3 kcal/mol; (in CCCOC(C)=O) -12.8 kcal/mol. The “solvation free energy, 298 K” value was -13.5 kcal/mol (in CCO); -13.3 kcal/mol (in CCOC(C)=O); -13.1 kcal/mol (in CCOCC); -14.1 kcal/mol (in CN(C)C=O); -13.4 kcal/mol (in COC(C)=O); -9.84 kcal/mol (in O).

As to `CC(=O)OCCOC(C)=O`, the “solvation free energy, 298 K” value (in O) was -6.34 kcal/mol.

Regarding `CCCOCCOC(=O)c1ccccc1C(=O)OCCOCCC`, for the setting “in O”, the “solvation free energy, 298 K” value is -13.2 kcal/mol.

Turning to `C=CC(C)C`, the “solvation free energy, 298 K” value runs as follows: (in CC(=O)N(C)C) -2.13 kcal/mol; (in CC(C)CC(C)(C)C) -2.87 kcal/mol; (in CCC(C)=O) -2.71 kcal/mol; (in CCCCCCC) -2.96 kcal/mol; (in CCCCCCCC) -2.92 kcal/mol; (in CCCCO) -2.5 kcal/mol. Moreover, the “solvation free energy, 298 K” value is, setting by setting: (in CCNC(C)=O) -2.26 kcal/mol; (in CCOC(C)=O) -2.74 kcal/mol; (in CN1CCCC1=O) -2.03 kcal/mol; (in CN(C)C=O) -2.09 kcal/mol; (in CNC(C)=O) -2.14 kcal/mol; (in CNC=O) -1.75 kcal/mol. Also, the “solvation free energy, 298 K” value runs as follows: (in Cc1ccc(C)cc1) -3.31 kcal/mol; (in ClCCCl) -2.71 kcal/mol; (in O) 1.84 kcal/mol; (in O=C1CCCCC1) -2.61 kcal/mol.

As to `C=C(C)C1CC=C(C)CCC=C(C)CC1` (stereo not given), under “in O”, the “solvation free energy, 298 K” value is -0.37 kcal/mol.

As to `COP(=O)(OC)OC`, the “solvation free energy, 298 K” value (in O) is -8.7 kcal/mol.

In the case of `CC(C)Cc1cnccn1`, the “solvation free energy, 298 K” value (in O) is -5.04 kcal/mol.

As for `CCOCCO`, the “solvation free energy, 298 K” value reads like this: (in CCCCCC) -4.01 kcal/mol; (in CCCCCCC) -3.85 kcal/mol; (in COC(C)=O) -5.89 kcal/mol; (in ClC(Cl)(Cl)Cl) -4.87 kcal/mol; (in ClCCl) -6.06 kcal/mol; (in O) -6.7 kcal/mol.

For the molecule `CCCN(CCC)c1c([N+](=O)[O-])cc(C(F)(F)F)cc1[N+](=O)[O-]`, the “solvation free energy, 298 K” value (in O) was -3.25 kcal/mol.

For the molecule `C=CCl`, where the note is “in O”, the “solvation free energy, 298 K” value is -0.59 kcal/mol.

For the molecule `Nc1ccccc1Cl`, the “solvation free energy, 298 K” value (in O) was -4.91 kcal/mol.

Take `c1ccc(P(c2ccccc2)c2ccccc2)cc1`: the “solvation free energy, 298 K” value is -15.4 kcal/mol (in CC(C)O), -15.7 kcal/mol (in CCO) and -15.4 kcal/mol (in CO).

Take `CC(Cl)(Cl)Cl`: the “solvation free energy, 298 K” value (in C1CCOC1) was -4.35 kcal/mol; the “solvation free energy, 298 K” value (in CC(=O)CC(C)C) was -4.28 kcal/mol; the “solvation free energy, 298 K” value (in CC(C)=O) is -4.23 kcal/mol; the “solvation free energy, 298 K” value (in CC(C)O) is -3.56 kcal/mol; the “solvation free energy, 298 K” value (in CCCCCCCCCCCCCC) is -3.61 kcal/mol; the “solvation free energy, 298 K” value (in CCCCCCCCCCCCCCCC) was -3.67 kcal/mol. For the same molecule, the “solvation free energy, 298 K” value was -3.63 kcal/mol (in CCCCCCCCN(CCCCCCCC)CCCCCCCC); -3.67 kcal/mol (in CCCCCCCCO); -3.78 kcal/mol (in CCCCCN(CCCCC)CCCCC); -4.32 kcal/mol (in CCCCCl); -3.69 kcal/mol (in CCCCN(CCCC)CCCC); -4.08 kcal/mol (in CCCCOCCCC). Moreover, the “solvation free energy, 298 K” value was -3.94 kcal/mol (in CCCO); -4.13 kcal/mol (in CCOCC); -4.24 kcal/mol (in ClC(Cl)(Cl)Cl); -4.42 kcal/mol (in ClC(Cl)Cl); -4.24 kcal/mol (in ClCCCl); -0.57 kcal/mol (in [2H]O[2H]).

With `CCCCC1CCCCC1`, the “solvation free energy, 298 K” value is, setting by setting: (in CCC(C)=O) -5.97 kcal/mol; (in CCO) -5.65 kcal/mol; (in CN1CCCC1=O) -5.09 kcal/mol; (in O) 1.96 kcal/mol; (in O=Cc1ccco1) -4.97 kcal/mol; (in OCCO) -2.38 kcal/mol. Moreover, the “solvation free energy, 298 K” value (in OCCOCCO) is -3.78 kcal/mol.

Turning to `OC1COC(O)C(O)C1O` (stereo not given), for the setting “in O”, the “solvation free energy, 298 K” value was -20.5 kcal/mol.

`ClC1CCCCC1`: the “solvation free energy, 298 K” value (in O) was -0.93 kcal/mol.

Consider `NC1CCCCC1`, for which, under “in C1CCCCC1”, the “solvation free energy, 298 K” value is -5.47 kcal/mol.

On to `CC(=O)c1ccccc1`, for which the “solvation free energy, 298 K” value is, setting by setting: (in CCCCCC) -6.05 kcal/mol; (in CCCCCCCCCCCCCCCC) -6.04 kcal/mol; (in O) -4.58 kcal/mol.

Turning to `CCSSCC`, the “solvation free energy, 298 K” value (in O) was -1.54 kcal/mol.

Turning to `CC(=O)CC(C)C`, the “solvation free energy, 298 K” value by setting is: (in C1COCCO1) -5.32 kcal/mol; (in CC(=O)N(C)C) -5.24 kcal/mol; (in CCCCCCCC) -4.34 kcal/mol; (in CCCCN(C=O)CCCC) -5.03 kcal/mol; (in CCOP(=O)(OCC)OCC) -4.94 kcal/mol; (in CN1CCCC1=O) -5.14 kcal/mol. Further, the “solvation free energy, 298 K” value is -5.12 kcal/mol (in CN1CCCCC1=O); -4.91 kcal/mol (in CN1CCN(C)C1=O); -4.82 kcal/mol (in CNC(C)=O); -4.19 kcal/mol (in NC=O); -3.06 kcal/mol (in O); -4.62 kcal/mol (in O=CN1CCOCC1). In addition, the “solvation free energy, 298 K” value (in OCCOCCO) was -4.21 kcal/mol.

For `C1=CCCCCCC1`, the “solvation free energy, 298 K” value was -4.91 kcal/mol (in CN1CCCC1=O) and -4.77 kcal/mol (in CN(C)C=O).

Consider `CCCCSP(=O)(O)SCCCC`, for which, for the setting “in O”, the “solvation free energy, 298 K” value was -8.03 kcal/mol.

Consider `CCCCCOCCCCC`, for which the “solvation free energy, 298 K” value is -6.4 kcal/mol (in CCCCCCCCCCCCCCCC) and -6.46 kcal/mol (in CCCCCCCCO).

For the molecule `OCCCc1ccccc1`, the “solvation free energy, 298 K” value (in O) was -6.92 kcal/mol.

As for `CN(C)CCOC(c1ccccc1)c1ccccc1`, where the note is “in O”, the “solvation free energy, 298 K” value is -9.34 kcal/mol.

As to `CC(C)c1ccccc1`, the “solvation free energy, 298 K” value (in C1CCOC1) is -6.5 kcal/mol; the “solvation free energy, 298 K” value (in CC#N) is -5.53 kcal/mol; the “solvation free energy, 298 K” value (in CC(C)=O) is -5.89 kcal/mol; the “solvation free energy, 298 K” value (in CC(C)O) was -5.21 kcal/mol; the “solvation free energy, 298 K” value (in CCCCCCC) was -5.72 kcal/mol; the “solvation free energy, 298 K” value (in CCCCCCCCO) was -5.43 kcal/mol. For the same molecule, the “solvation free energy, 298 K” value is -5.18 kcal/mol (in CO); -3.38 kcal/mol (in NC=O); -0.34 kcal/mol (in O); -5.28 kcal/mol (in O=CN1CCOCC1); -3.54 kcal/mol (in OCCO); -4.43 kcal/mol (in OCCOCCO). Moreover, the “solvation free energy, 298 K” value (in OCCOCCOCCO) is -4.56 kcal/mol.

Take `CC(C)C(C)C`: the “solvation free energy, 298 K” value (in C=CCCCCCCCCCCCCCC) is -3.31 kcal/mol; the “solvation free energy, 298 K” value (in CC#N) was -2.4 kcal/mol; the “solvation free energy, 298 K” value (in CCCCCCCCCCCCCCCC) was -3.41 kcal/mol; the “solvation free energy, 298 K” value (in CCCCCCCCCCCCO) was -3.07 kcal/mol; the “solvation free energy, 298 K” value (in CCCCCO) is -3.15 kcal/mol; the “solvation free energy, 298 K” value (in CCCCO) was -3.07 kcal/mol. The “solvation free energy, 298 K” value (in O) was 2.36 kcal/mol.

With `CCCCCCO`, the “solvation free energy, 298 K” value was -5.98 kcal/mol (in Brc1ccccc1); -7.42 kcal/mol (in C1CCOC1); -6.44 kcal/mol (in CC#N); -5.1 kcal/mol (in CC(C)CC(C)(C)C); -7.54 kcal/mol (in CC(C)O); -6.96 kcal/mol (in CCC(C)=O). Also, the “solvation free energy, 298 K” value was -5.02 kcal/mol (in CCCCCC); -5.27 kcal/mol (in CCCCCCC); -4.99 kcal/mol (in CCCCCCCC); -4.99 kcal/mol (in CCCCCCCCCC); -4.89 kcal/mol (in CCCCCCCCCCCCCCCC); -6.99 kcal/mol (in CCCCCCCCCCO). Moreover, the “solvation free energy, 298 K” value reads like this: (in CCCCCCCCO) -7.06 kcal/mol; (in CCCCCl) -5.99 kcal/mol; (in CCCCOC(C)=O) -6.83 kcal/mol; (in CCCOCCC) -6.31 kcal/mol; (in Cc1ccccc1C) -5.91 kcal/mol; (in NC=O) -6.04 kcal/mol. Moreover, the “solvation free energy, 298 K” value runs as follows: (in O) -4.4 kcal/mol; (in [2H]O[2H]) -4.57 kcal/mol.

Turning to `CCCCCCCCBr`, the “solvation free energy, 298 K” value (in O) is 0.52 kcal/mol.

Turning to `C=C1CC2CCC1C2(C)C` (stereo not given), the “solvation free energy, 298 K” value (in O) worked out at 0.52 kcal/mol.

Consider `Clc1cc(Cl)c(-c2ccccc2)c(Cl)c1`, for which the “solvation free energy, 298 K” value (in O) was -2.16 kcal/mol.

Consider `O=c1[nH]cc(F)c(=O)[nH]1`, for which the “solvation free energy, 298 K” value (in O) is -16.9 kcal/mol.

As to `CC=CC`, the “solvation free energy, 298 K” value was -2.17 kcal/mol (in CC(=O)N(C)C); -2.47 kcal/mol (in CC(C)=O); -2.77 kcal/mol (in CCOC(C)=O); -2.11 kcal/mol (in CN(C)C=O); 1.34 kcal/mol (in O); -1.45 kcal/mol (in O=CN1CCOCC1).

For the molecule `FC(Cl)C(F)(F)F` (stereo not given), the “solvation free energy, 298 K” value by setting is: (in CCCCCCCCO) -1.67 kcal/mol; (in CN1CCCC1=O) -2.39 kcal/mol; (in CN(C)C=O) -2.44 kcal/mol; (in O) 0.79 kcal/mol.

As for `CC(F)F`, the “solvation free energy, 298 K” value runs as follows: (in CC(C)(C)O) -1.42 kcal/mol; (in CC(C)CCO) -1.3 kcal/mol; (in CC(C)CO) -1.35 kcal/mol; (in CC(C)O) -1.5 kcal/mol; (in CCC(C)(C)O) -1.36 kcal/mol; (in CCC(C)CO) -1.23 kcal/mol. For the same molecule, the “solvation free energy, 298 K” value is, setting by setting: (in CCC(C)O) -1.32 kcal/mol; (in CCC(O)CC) -1.24 kcal/mol; (in CCCC(C)O) -1.21 kcal/mol; (in CCCCCCCC(=O)OCC(COC(=O)CCCCCCC)OC(=O)CCCCCCC) -1.37 kcal/mol; (in CCCCCCCCC) -1.08 kcal/mol; (in CCCCCCCCO) -1.07 kcal/mol. The “solvation free energy, 298 K” value is -1.28 kcal/mol (in CCCCCO); -1.36 kcal/mol (in CCCCO); -1.49 kcal/mol (in CCCO); -2.02 kcal/mol (in CN1CCCC1=O); -2.11 kcal/mol (in CN(C)C=O); -1.91 kcal/mol (in CO). Besides, the “solvation free energy, 298 K” value (in Cc1ccc(C)cc1) was -1.62 kcal/mol; the “solvation free energy, 298 K” value (in Cc1cccc(C)c1) is -1.63 kcal/mol; the “solvation free energy, 298 K” value (in Cc1ccccc1C) is -1.62 kcal/mol; the “solvation free energy, 298 K” value (in O) was -0.12 kcal/mol.
